Key:
Assay in all cases: relative viability (nuclei count vs DMSO), 5 days (fraction); higher = more cells survive
Bortezomib + Dasatinib = compound: CC(C)C[C@H](NC(=O)[C@H](Cc1ccccc1)NC(=O)c1cnccn1)B(O)O [Bortezomib] + Cc1nc(Nc2ncc(C(=O)Nc3c(C)cccc3Cl)s2)cc(N2CCN(CCO)CC2)n1 [Dasatinib] (partner 0.075 µM)
Procedure, shortened: (§1)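 Values are medians from duplicate plates. Each reflects relative viability, defined as the nuclei count of treated wells over that of vehicle wells. Lung cancer cell lines in 1536-well plates were pin-tool dosed one day after seeding with one drug alone or with a fixed anchor-drug dose plus five library-drug doses (not always all listed) in √10 steps, then fixed, stained and imaged at 4× after 5 days.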

[1] = compound: CC1=CC(=NN1)NC2=CC(=NC(=N2)/C=C/C3=CC=CC=C3)N4CCN(CC4)C + CC(=O)Nc1cccc(-n2c(=O)n(C3CC3)c(=O)c3c(Nc4ccc(I)cc4F)n(C)c(=O)c(C)c32)c1 [Trametinib] (partner 0.02 µM)
Procedure, shortened: as §1

Obatoclax + Pemetrexed = compound: COC1=CC(c2cc3ccccc3[nH]2)=N/C1=C\c1[nH]c(C)cc1C [Obatoclax] + Nc1nc2[nH]cc(CCc3ccc(C(=O)N[C@@H](CCC(=O)O)C(=O)O)cc3)c2c(=O)[nH]1 [Pemetrexed] (partner 0.2 µM)
Procedure, shortened: as §1

[2] = compound: CC1=CC(=NN1)NC2=CC(=NC(=N2)/C=C/C3=CC=CC=C3)N4CCN(CC4)C + CC1(C)CCC(c2ccc(Cl)cc2)=C(CN2CCN(c3ccc(C(=O)NS(=O)(=O)c4ccc(N[C@H](CCN5CCOCC5)CSc5ccccc5)c(S(=O)(=O)C(F)(F)F)c4)cc3)CC2)C1 [Navitoclax] (partner 0.5 µM)
Procedure, shortened: as §1

Cell Line	relative viability (Bortezomib + Dasatinib; first compound 0.0002 µM)	relative viability (Bortezomib + Dasatinib; first compound 0.000632 µM)	relative viability (Bortezomib + Dasatinib; first compound 0.002 µM)	relative viability (Bortezomib + Dasatinib; first compound 0.006325 µM)	relative viability (Bortezomib + Dasatinib; first compound 0.02 µM)	relative viability ([1]; first compound 0.08 µM)	relative viability ([1]; first compound 0.253 µM)	relative viability ([1]; first compound 0.8 µM)	relative viability ([1]; first compound 2.53 µM)	relative viability ([1]; first compound 8 µM)	relative viability (Obatoclax + Pemetrexed; first compound 0.01 µM)	relative viability (Obatoclax + Pemetrexed; first compound 0.03162 µM)	relative viability (Obatoclax + Pemetrexed; first compound 0.1 µM)	relative viability (Obatoclax + Pemetrexed; first compound 0.3162 µM)	relative viability (Obatoclax + Pemetrexed; first compound 1 µM)	relative viability ([2]; first compound 0.08 µM)	relative viability ([2]; first compound 0.253 µM)	relative viability ([2]; first compound 0.8 µM)	relative viability ([2]; first compound 2.53 µM)	relative viability ([2]; first compound 8 µM)
201T	0.571	0.607	0.536	0.589	0.283	0.713	0.741	0.674	0.664	0.649	0.339	0.315	0.282	0.34	0.359	1.2	1.21	1.19	1.13	1.12
A549																1.1	1.19	0.985	0.0304	0.0283
A-427	0.611	0.746	0.716	0.408	0.104	0.632	0.6	0.76	0.451	0.215	0.95	0.965	0.74	0.909	0.75	1.04	1.02	0.991	0.627	0.164
ABC-1	0.6	0.317	0.243	0.224	0.233															
BEN	0.262	0.408	0.343	0.246	0.249	0.901	1.07	1.02	0.895	0.31	0.852	0.534	0.44	0.618	0.762	0.0566	0.0746	0.188	0.0803	0.0617
CAL-12T	0.538	0.347	0.53	0.119	0.0844	0.362	0.292	0.259	0.102	0.104	1.04	1.16	1.13	0.896	0.149	0.918	1.31	1.16	0.424	0.151
COR-L23	0.461	0.459	0.485	0.045	0.054	0.549	0.244	0.574	0.102	0.0853	0.193	0.188	0.197	0.203	0.182	1.02	1.07	0.884	0.302	0.0578
COR-L 105	0.381	0.324	0.352	0.267	0.216	0.427	0.453	0.416	0.276	0.27	1.13	1.01	1.15	1.27	0.584	0.739	0.976	0.727	0.4	0.206
Calu-6																0.765	0.623	0.523	0.0678	0.0602
ChaGo-K-1	0.535	0.539	0.558	0.207	0.13	0.937	0.887	0.807	0.753	0.19	0.243	0.252	0.261	0.265	0.274	0.893	1.12	1.24	0.298	0.272
EBC-1																0.387	0.396	0.285	0.154	0.147
EKVX	0.544	0.526	0.707	0.397	0.185	0.387	0.368	0.394	0.352	0.137	0.397		0.358	0.372	0.436	0.946	1.24	1.03	0.755	0.131
EMC-BAC-2	0.313	0.318	0.494	0.157	0.188	0.899	0.698	0.938	0.691	0.283	0.42	0.47	0.395	0.452	0.419	1.1	1.11	1.07	0.719	0.266
EPLC-272H	0.342	0.192	0.277	0.0803	0.0618	0.251	0.261	0.292	0.213	0.126	0.324	0.387	0.422	0.327	0.263	1.07	1.32	0.987	0.598	0.339
H3255	0.332	0.271	0.299	0.37	0.28	0.636	0.45	0.665	0.608	0.271	0.54	0.51	0.498	0.471	0.597	0.518	0.61	0.517	0.43	0.0832
HARA	0.206	0.239	0.259	0.105	0.0621	0.824	0.448	0.65	0.148	0.0692	0.236	0.293	0.249	0.262	0.303	1.17	1.16	1.13	0.982	0.238
HCC-15	0.514	0.629	0.649	0.0786	0.0817	0.371	0.378	0.396	0.278	0.0994	0.215	0.234	0.215	0.225	0.228	0.67	0.731	0.612	0.409	0.118
HCC-44						1.04	1.06	1.04	1.09	0.677	0.64	0.648	0.589	0.627	0.652	0.967	1.01	0.965	0.912	0.436
HCC-78	0.354	0.385	0.291	0.422	0.274	0.763	0.605	0.877	0.647	0.324	0.858	0.898	0.777	0.887	0.897	0.799	0.918	0.823	0.568	0.126
